US12144815B2, “Use of aprepitant for treating Alzheimer's disease” (Hoth Therapeutics, Inc., priority 2021, dated 2024)

How the values were obtained:
[1] = tested on: brain interstitial fluid (ISF) Aβ; experiment: In vivo microdialysis of brain interstitial fluid (ISF) Aβ with Aβ sandwich ELISA; conditions: APP/PS1+/− mice, 40 mg/kg oral gavage
Protocol: In vivo microdialysis was utilized to measure the basal concentration of ISF Aβ in each mouse, followed by administration via oral gavage of 40 mg/kg dose of aprepitant or vehicle (corn oil) and continued measurement of Aβ over 24 hours.
Three-four month old APP/PS1^+/− mice were implanted with unilateral guide cannula above the hippocampus followed by insertion of microdialysis probes (see, for example, In Vivo AβMicrodialysis of Example 7). Each animal recovered for 3 days between guide cannula implantation and start of microdialysis. Littermate females and males were separated randomly into each treatment group. Throughout each microdialysis study, mice were housed in special RaTurn caging systems to provide freedom of movement and ad lib food and water while the microdialysis equipment was attached. […]
Following drug administration, ISF was measured every 60 minutes for 24 hours. […] ISF APβ was immediately measured at the end of each study by Aβ sandwich ELISA. […]
In Vivo Aβ Microdialysis. […] Samples were collected every 60 or 90 minutes into a refrigerated fraction collector (Univentor Limited) in polypropylene tubes and assessed for […] by sandwich ELISA. […]
Aβ Sandwich ELISA. ISF Aβx-40 levels were measured using sandwich ELISAs as described (Hettinger et al., 2018). […]

APP/PS1 mice = experiment: Morris Water Maze test of spatial learning and memory; assay type: in vivo; conditions: 3 weeks oral treatment
Protocol: A Morris Water Maze test was used to evaluate spatial learning and memory after 3 weeks treatment with oral aprepitant or vehicle in APP/PS1 or wild type (WT) mice.
Animal Model. All experiment protocols using animals were performed ethically and in accordance with the guidelines established by the Institutional Animal Care and Use Committee at Washington University. APPswe/PS1DE9 hemizygous mice (Jackson Laboratory, RRID: MMRRC_034829.JAX) (Savonenko et al., 2003) were bred to wild type C3H/B6 mice and aged the APP/PS1^+/− offspring to 2-3.5 months for microdialysis experiments or aged to 9 months for behavioral testing. Males and females were included in each group; aprepitant treated mice n=20 (11 males, 9 females), Vehicle treated mice […] for microdialysis experiments. […]
Morris water maze (MWM) test. […] The PVC escape platform measured 11.5 cm in diameter. A digital video camera connected to a PC computer and the computer software program ANY-maze (Stoelting Co., Wood Dale, IL) tracked the swimming pathway of the mouse to the escape platform and quantified path length, latency to find escape platform, and swimming speeds. […]

With `C[C@H](O[C@@H]1OCCN(Cc2n[nH]c(=O)[nH]2)[C@H]1c1ccc(F)cc1)c1cc(C(F)(F)F)cc(C(F)(F)F)c1` [aprepitant] the “average ISF Aβ levels post gavage compared to vehicle treated mice” value ([1]; Bonferroni post hoc, p=0.0002) was “significantly lower”, the “ISF Aβ levels, change from baseline (within group)” value ([1]; hippocampal ISF measured over 24 hours, p <0.0001, vehicle (corn oil) mice did not decrease (p=0.4003)) was “significantly decreased from their baseline” and the “spatial memory for the platform location (time spent in the target quadrant, probe trial)” value (APP/PS1 mice; compared to vehicle-treated APP/PS1 mice, preliminary data) was “trend for improved memory”. The “spatial learning (path length, learning trials)” value (APP/PS1 mice; n=4 vs vehicle n=3, preliminary data, trend) was “improved spatial learning”.
